Experimental data: patent publication US8541167B2 (priority 2004, dated 2013)

Key:
[1] = system: ectromelia virus; parameters: species or system Mice; conditions: mouse, in vivo, ip, 12.5 mg/kg/day
[2] = system: ECTV; parameters: species or system A/NCr mice; conditions: mouse, in vivo
[3] = system: vaccinia, ectromelia or cowpox; conditions: mouse, in vivo; cited from earlier work

SMILES: Nc1ccn(C[C@@H](CO)OCP(=O)(O)O)c(=O)n1 [Cidofovir]
- effect of cidofovir during vaccination on level of protection from lethal disease [1]: did not affect the level of protection
- protection from death afforded by vaccination in presence vs absence of CDV [2]: no difference observed
- efficacy in protecting mice from a lethal dose [3]: high efficacy
